Row | Structure (SMILES) | logP
1 | Nc1nc2ccccc2o1 | 1.53
2 | O=[N+]([O-])c1cccc(OC2OC(CO)C(O)C(O)C2O)c1 (stereo not given) | -0.51
3 | CCCCCCCCCCCCCC[n+]1ccc(C)c(C)c1.[I-] | 2.93
4 | O=[N+]([O-])C=Cc1ccc(O)cc1 | 2.12
5 | Clc1cccc(NC2=NCCN2)c1Cl | 1.94
6 | Clc1cc(Cl)c(-c2ccccc2)cc1Cl | 5.81
7 | CC1C2CCC3C(O)C2(CC(O)C2(O)C1CC(O)C2(C)C)CC3(C)O (stereo not given) | 1.51
8 | NNC(=O)c1ccc2ncccc2c1 | 0.35
9 | COc1cc(Cc2cnc(N)nc2N)ccc1C | 2.14
10 | CCCCCCC1OC(=O)c2ccccc21 (stereo not given) | 3.55
11 | CC(=O)N=C1SC(=Cc2ccc([N+](=O)[O-])o2)C(=O)N1C | 1.21
12 | CC(=O)N(C)c1c(I)c(C(=O)NCC(O)CO)c(I)c(C(=O)NCC(O)CO)c1I (stereo not given) | -2.06
13 | CN(C)C(=O)c1cc(N2CC2)c([N+](=O)[O-])cc1[N+](=O)[O-] | 0.63
14 | O=S1(=O)N=CNc2ccc(Cl)cc21 | 1.07
15 | c1ccc(Sc2cnn[nH]2)cc1 | 2.65
16 | COP(=O)(OC)Oc1ccc([N+](=O)[O-])c(Cl)c1 | 1.83
17 | CN(C)C(=O)OCc1ccccc1 | 2.16
18 | COc1cccc(Cc2cnc(N)nc2N)c1 | 1.54
19 | COc1cc(Cc2cnc(N)nc2N)cc(OC)c1Br | 2.01
20 | CSC(C)=NOC(=O)N(C)SN(C)C(=O)c1ccc(Cl)cc1 | 2.6
21 | NC1CC2CC1c1cc(C(F)(F)F)ccc12 (stereo not given) | 3.19
22 | NC(=O)CCCCn1nnc2ccccc21 | 0.58
23 | CCOC(=O)C(C#N)=NNc1cc(Cl)cc(Cl)c1 | 3.82
24 | CCOC(=O)c1c(OCC)cc(Cc2cnc(N)nc2N)cc1OCC | 2.28
25 | Cc1cccc2nccc(=O)n12 | 0.74

Row | Structure (SMILES) | logP
26 | CC(C)(C)c1nnc(N)o1 | 0.48
27 | Cn1ncc2c([N+](=O)[O-])cc([N+](=O)[O-])cc21 | 1.63
28 | Cc1cccc(NC(=O)CN2CCCCC2)c1 | 2.97
29 | CS(=O)(=O)c1ccc(NS(=O)(=O)C(F)(F)F)cc1 | 1.99
30 | O=[N+]([O-])c1nccn1C1OC(CO)C(O)C1O (stereo not given) | -1.15
31 | Nc1nc(N)nc(-c2cc(Cl)ccc2F)n1 | 1.81
32 | O=S1(=O)NC(C2CC3C=CC2C3)=Nc2ccccc21 (stereo not given) | 2.06
33 | CNC(=O)NCCSCc1[nH]cnc1C | -0.06
34 | Nc1cccc(O[Si]23OCCN(CCO2)CCO3)c1 | -1.15
35 | S=C=Nc1ccc(-c2ccc(N=C=S)cc2)cc1 | 5.5
36 | CC(=O)Nc1cnc2ccccc2c1 | 1.92
37 | N#Cc1ccc(C=CNC=O)cc1 | 1.62
38 | Brc1ccc(N=C2NCCN2)cc1 | 1.75
39 | CC1=C(C(N)=O)SCCO1 | -0.22
40 | CN1C(=O)SC(=CC=Cc2ccc([N+](=O)[O-])o2)C1=O | 1.4
41 | CCOCC(O)Cn1ccnc1[N+](=O)[O-] (stereo not given) | 0.04
42 | OCC1OC(SCCc2ccccc2)C(O)C(O)C1O (stereo not given) | -0.1
43 | CC(=O)NC1CC1c1ccccc1 (stereo not given) | 1.43
44 | C[N+](C)(C)Cc1ccccn1.[Br-] | -3.4
45 | CCOC(=O)C(=Cc1ccc(Cl)cc1)C(=O)OCC | 3.96
46 | O=[N+]([O-])c1cc2nc(C(F)(F)F)[nH]c2cc1Cl | 3.21
47 | COP(=O)(OC)Oc1ccccc1 | 1.22
48 | C=CCN1C(=O)SC(=Cc2ccc([N+](=O)[O-])o2)C1=O | 2.22
49 | O=C(O)COc1cc(F)cc(I)c1 | 2.42
50 | O=C1CC(C(=O)O)Oc2ccc(Cl)cc21 (stereo not given) | 1.77

Row | Structure (SMILES) | logP
51 | O=C1O[C@@H](O)c2ccccc21 | 0.57
52 | COCN1C(=O)CN=C(c2ccccc2F)c2cc(N)ccc21 | 1.31
53 | O=[N+]([O-])C=Cc1ccccc1Cl | 2.85
54 | Cc1ccccc1-c1nc(N)nc(N)n1 | 1.26
55 | CN(C)C(=O)c1ccoc1 | 0.24
56 | NS(=O)(=O)NS(=O)(=O)Nc1ccccc1 | 0.02
57 | C=CCOCC(O)Cn1ccnc1[N+](=O)[O-] (stereo not given) | 0.4
58 | CCC(=O)N(C)SN(C)C(=O)ON=C(C)SC | 1.6
59 | Nc1ncc(Cc2cc(Cl)c(Cl)c(Cl)c2)c(N)n1 | 3.64
60 | CNC(=O)c1ccc(S(N)(=O)=O)cc1 | -0.31
61 | CN(C)/N=N/c1cc(C(N)=O)cc(C(N)=O)c1 | 0.22
62 | COc1cc(OC)nc(-n2[nH]c(=O)cc2C)n1 | 1.16
63 | CCCNC(=NC#N)NC | 0.42
64 | CCCC1(CC)C(=O)NC(=O)N(C)C1=O (stereo not given) | 1.65
65 | CCC12CC3CC(N)(C1)CC(CC)(C3)C2 | 4.36
66 | O=[N+]([O-])c1c(Cl)c[n+]([O-])c2ccccc12 | 1.33
67 | NC(=O)CCCn1nnc2ccccc21 | 0.37
68 | CCC(C)NC(=O)C=Cc1ccc(Cl)cc1 (stereo not given) | 3.37
69 | O=C1CN=C(c2ccc(C(F)(F)F)cc2)c2ccccc2N1 | 3.34
70 | O=C(O)CCCCCn1nnc2ccccc21 | 0.86
71 | COc1cc(Cc2cnc(N)nc2N)cc(OC)c1-n1cccc1 | 1.78
72 | CCCC(=O)Nc1ccc(C)cc1O | 2.26
73 | CSC1=NCCN1c1ncc([N+](=O)[O-])s1 | 1.78
74 | O=C1CN=C(c2ccccc2F)c2cc(I)ccc2N1CC(O)CO (stereo not given) | 1.81
75 | COC12C(COC(N)=O)C3=C(C(=O)C(C)=C(Nc4ccccc4)C3=O)N1CC1NC12 (stereo not given) | 1.3
